# Measured values taken from PubChem BioAssay (NCI).
#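 Values below derive from 48-hour exposures of cells grown in 96-well plates, with endpoints linearly interpolated between the two concentrations bracketing the appropriate inhibition level. GI50 is the concentration that inhibits growth by half. TGI denotes the concentration required for complete inhibition of growth.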
# Legend:
# Experiment in all cases: DTP human tumour cell line panel, 48 h
# [1] = tested on: MCF7 breast
# [2] = tested on: MDA-N
# [3] = tested on: OVCAR-5 ovarian
# [4] = tested on: A498 renal
# [5] = tested on: COLO 205 colon
# [6] = tested on: BT-549 breast
# [7] = tested on: SK-OV-3 ovarian
# [8] = tested on: SR leukemia
# [9] = tested on: 786-0 renal
# [10] = tested on: KM20L2 colon
# [11] = tested on: DLD-1 colon
# [12] = tested on: DMS 114 small cell lung
# [13] = tested on: SNB-78 CNS
# [14] = tested on: XF 498 CNS
SMILES,TGI [1] [µM],TGI [2] [µM],TGI [3] [µM],TGI [4] [µM],TGI [5] [µM],TGI [6] [µM],TGI [7] [µM],TGI [8] [µM],GI50 [1] [µM],GI50 [3] [µM],GI50 [4] [µM],GI50 [5] [µM],GI50 [8] [µM],TGI [9] [µM],TGI [10] [µM],TGI [11] [µM],TGI [12] [µM],TGI [13] [µM],TGI [14] [µM],GI50 [7] [µM]
N#Cc1c(Cl)c2cc([N+](=O)[O-])ccc2n2c1nc1ccccc12,4.56,> 100,16.5,> 55.6,4.67,34.4,54.5,,,,,,,,,,,,,
CCOC(=O)C(O)(NC(=O)c1ccc(F)cc1)C(F)(F)F (stereo unspecified),> 100,> 100,> 100,,> 100,> 100,> 100,> 100,,,,,,,,,,,,
O=S1(=O)N(CCNc2nccc(-c3c(-c4cccc(O)c4)nc4sccn34)n2)CCN1Cc1ccccc1,34.6,,> 50,4.35,32.3,,,> 50,4.22,29.8,1.78,0.621,9.76,,,,,,,
NCCCCC(N)C(=O)NCCNc1ccc(NCCNC(=O)C(N)CCCCN)c2c1C(=O)c1ccccc1C2=O (stereo unspecified),> 100,> 100,> 100,> 100,> 100,20.1,> 100,> 100,,,,,,> 100,,,,,,
C=CC1(C)CCC2=C(CCC3C(C)(C(=O)OC)CCCC23C)C1=O (stereo unspecified),,,29.5,28.4,34.6,,34.4,42,,,,,,,40.3,36.5,32.7,80.1,,
O=C(N/N=C\c1cccc(O)c1)c1ccncc1,,> 100,> 100,> 100,,> 100,,> 100,,,,,,> 100,,,,,,
O=C1CCCCC2N(C(c3ccccc3)c3ccccc3)CC[C@@]12c1ccccc1 (mixture of isomers),,,> 10,> 10,,,> 10,,,,,,,,> 10,,> 10,> 10,,
C=C(C)C(=O)OC1CCC2(C)C(CCC3C2CCC2(C)C(c4ccc(=O)oc4)CC4OC432)C1 (stereo unspecified),13.2,,106,21.8,22.8,,99.8,,,,,,,,40.4,7.38,9.11,60.7,21,
O=C(O)Cc1cc(O)c(CC(=O)O)cc1O,,> 100,> 100,> 100,,> 100,,> 100,,,,,,> 100,,,,,,
CCN(CC)CC(=O)O[C@]1(CC)C(=O)OCc2c1cc1n(c2=O)Cc2cc3ccccc3nc2-1,,1.58,1.43,0.256,3.22,1.93,,,,,,,,0.13,0.887,> 100,0.362,> 100,2.19,
Cc1cc(O)c(C(C)(C)C)cc1Sc1cc(C(C)(C)C)c(O)cc1C,9,,4,6.29,7.24,,13.2,7.23,2.61,1.93,2.21,2.83,1.89,,,,,,,3.56
Cc1nc2ccccc2n1C(=O)c1c(F)c(F)c(F)c(F)c1F,> 100,33.2,40.8,57,77.9,39.5,62,> 100,,,,,,,,,,,,
Clc1ccccc1/C=C/c1cscn1,,,> 100,> 100,,,> 100,> 100,,,,,,,,> 100,> 100,> 100,> 100,
CCOC(=O)CN=C1NNS(=O)(=O)c2ccccc21,> 100,> 100,> 100,> 100,> 100,> 100,> 100,> 100,,,,,,> 100,,,,,,
Cc1ccc2c(c1)C1(C)OC(C=CC1=O)O2 (stereo unspecified),6.09,,4.46,13.4,1.43,1.57,12,1.09,,,,,,0.822,,,,,,
Cn1c(=O)c2[nH]c(CCCCC(=O)O)nc2n(C)c1=O,,> 100,> 100,> 100,,> 100,,,,,,,,> 100,,,,,,
